According to ChEMBL document CHEMBL1124922 (J Med Chem, 1990):
pIC50: −log10 of the molar value.

How the values were obtained:
[1] = Evaluated for cytotoxicity under aerobic conditions against AA8 cells using microassay; assay type: cell-based; conditions: Cricetulus griseus, CHO-AA8
[2] = Evaluated for cytotoxicity under aerobic conditions against UV4 cells using microassay; assay type: cell-based; conditions: Cricetulus griseus
Cricetulus griseus = species on record: Cricetulus griseus; assay: Evaluated for hypersensitivity factor (HF) (HF = IC50 AA8 / IC50 UV-4) values are intra experiment ratios; assay type: functional

Structure (SMILES)	pIC50 [1]	pIC50 [2]	Ratio (Cricetulus griseus)
O=[N+]([O-])c1ccc(N(CCO)CCO)cc1	2.49		
O=[N+]([O-])c1ccccc1N(CCO)CCO	2.10		
CS(=O)(=O)OCCN(CCOS(C)(=O)=O)c1ccc([N+](=O)[O-])cc1		5.86	> 1
CS(=O)(=O)OCCN(CCOS(C)(=O)=O)c1ccccc1	4.87	6.23	30
O=[N+]([O-])c1cccc(N(CCO)CCO)c1	2.51		
